Laboratory results published in ChEMBL document CHEMBL1128068, “Inhibitors of human collagenase: dipeptide mimetics with lactam and azalactam moieties at the position” (Bioorg Med Chem Lett, 1995).

molecular target: T1, Interstitial collagenase (Homo sapiens, UniProt P03956); assay: Inhibition of semi-purified human lung fibroblast collagenase
T1 sequence (P03956 whole entry): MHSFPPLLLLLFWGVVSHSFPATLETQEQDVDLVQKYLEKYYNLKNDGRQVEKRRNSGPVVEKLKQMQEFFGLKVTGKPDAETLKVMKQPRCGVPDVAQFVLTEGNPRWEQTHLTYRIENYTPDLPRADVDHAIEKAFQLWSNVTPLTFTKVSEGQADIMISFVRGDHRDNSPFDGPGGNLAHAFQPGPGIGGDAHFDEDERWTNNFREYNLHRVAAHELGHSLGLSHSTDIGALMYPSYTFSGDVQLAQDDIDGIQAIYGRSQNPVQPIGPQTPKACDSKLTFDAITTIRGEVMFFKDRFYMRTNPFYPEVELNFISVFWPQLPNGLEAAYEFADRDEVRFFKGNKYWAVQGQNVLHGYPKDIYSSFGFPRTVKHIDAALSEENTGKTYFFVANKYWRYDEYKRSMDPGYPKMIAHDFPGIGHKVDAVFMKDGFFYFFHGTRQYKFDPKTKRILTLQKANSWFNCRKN

SMILES | IC50
CC[C@H](N[C@@H](CC(C)C)C(=O)NC1CCCNCCCCCCNC1=O)P(=O)(O)O (stereo partly specified) | 227 nM
CCC(N[C@@H](CC(C)C)C(=O)NC1CCCCCCCCCCNC1=O)P(=O)(O)O (stereo partly specified) | 183 nM
CC(C)CC(CC(=O)NO)C(=O)N[C@H]1CCCCNCCCCCNC1=O (stereo in doubt; 17b) | 82 nM
CC[C@H](N[C@@H](CC(C)C)C(=O)NC1CCCCNCCCNC1=O)P(=O)(O)O (stereo partly specified) | 2230 nM
CC(C)CC(CC(=O)NO)C(=O)N[C@H]1CCCCNCCCCCNC1=O (stereo in doubt; 17a) | 12 nM
CC[C@H](N[C@@H](CC(C)C)C(=O)NC1CCCCNCCCCCNC1=O)P(=O)(O)O (stereo partly specified) | 460 nM
CC(C)CC(CC(=O)NO)C(=O)NC1CCCCCCCCCCNC1=O (stereo unspecified) | 26 nM
CC(C)C[C@@H](C(=O)NC1CCCCCCCCCCNC1=O)[C@@H](S)CC(=O)OC(C)C (stereo partly specified) | 51 nM
CC[C@H](N[C@@H](CC(C)C)C(=O)NC1CCCCN(C)CCCCCNC1=O)P(=O)(O)O (stereo partly specified) | 510 nM
CC[C@H](N[C@@H](CC(C)C)C(=O)NC1CCCCNCCCCCCNC1=O)P(=O)(O)O (stereo partly specified) | 307 nM
CC(C)CC(C(=O)NC1CCCCNCCCCCNC1=O)[C@@H](S)CC(=O)OC(C)C (stereo partly specified) | 44 nM
